Assay: Lipid maldigestion/malabsorption animal model obtained with Orlistat: EPA incorporation in red blood cells, plasma lipids and tissues
Assay type: in vivo, rats
Settings: comparison between the groups receiving fish oil with or without Orlistat; day 7
Text: Treatments: Control rats fed fish oil with or without Orlistat and rats fed NAG derivatives described in FIGS. 1A and 1B. Values are means±SEM (n=6).
The inventors tested their concept in a lipid malabsorption animal model. The lipid maldigestion/malabsorption conditions were obtained using Orlistat®, a well known pancreatic and gastric lipases inhibitor. Animals were fed with long-chain polyunsaturated fatty acid (LC-PUFA) supplements containing mainly eicosapentaenoic (EPA) acid. Fish oil was used as a source of triacylglycerols and different EPA glycerides, for example those of FIGS. 1A and 1B, were evaluated. At different time intervals the fatty acid profile of red blood cells and plasma lipids was assessed. At the end of the experiment, fatty acid profiles of different tissues were determined. […]
The concept was tested in a lipid maldigestion or malabsorption animal model. […] Fish oil was used as a source of triacylglycerols and the different EPA glycerides provided in FIGS. 1A and 1B were evaluated. […] At the end of the experiment, fatty acid profiles of different tissues were determined.
The main objective was to follow the level of EPA in red blood cell and plasma lipids. The main comparison evaluated was the difference in EPA level between groups receiving EPA derivatives (FIGS. 1A and 1B) in combination with Orlistat and the […] control group (fish oil+Orlistat).

CCCCCCCCCCC[C@@H](C[C@@H]1OC(=O)[C@H]1CCCCCC)OC(=O)[C@H](CC(C)C)NC=O [Orlistat]
EPA incorporation in red blood cells: decrease EPA incorporation in red blood cells
